For test [1], the target named is T1, human TRPM8 (Homo sapiens, UniProt Q7Z2W7).
T1 construct: expressed in transfected cells; host or cells: HEK293 (human cells)
In words: functional cell based calcium assay, cells recombinantly expressing human TRPM8. The note with it: for EC50: activator (agonist) of TRPM8, intracellular calcium, calcium-sensitive dye fluorescence; for EC50 as activator of TRPM8 times lower than EC50 as activator of TRPA1: ratio EC50 TRPA1 / EC50 TRPM8. The source says:
(§1) As used herein, a functional cell based assay under standard conditions means evaluating the cellular activity of compounds with regard to the modulation of the intracellular calcium level using cells recombinantly expressing human TRPM8 or human TRPA1. In particular, in this context the term “standard conditions” means an activity test using HEK293 cells recombinantly expressing either human TRPM8 or human TRPA1, which cells have been contacted with a calcium-sensitive dye (such as Fluo-4AM, i.e. Fluo-4-acetoxymethylester), wherein the cells are incubated with the compound to be tested, and receptor modulation is quantitatively detected by calcium-dependent changes is fluorescence intensity. Such a test system is disclosed, inter alia, in Behrendt H J et al., Br. J. Pharmacol. 2004, 141:737-745, which is enclosed herein by reference.
(§2) A screening for novel modulators of TRPM8 was conducted. For the screening, a routine screening setup was used. In particular, the compounds comprised by a compound library were tested for agonistic activity towards TRPM8 and a dose response analysis of the most promising candidates was conducted (TRPM8 versus TRPA1). In particular, promising candidates were analyzed with regard to their EC50 values as well as their efficacy values, and 7 development candidates were selected (i.e. Compounds I.3, II.3, III.3, IV.3, V.3, VI.3, and VII.3, as described herein above).
(§3) For the above analysis, a functional cell based assay under standard conditions as described herein was used, i.e. the cellular activity of the compounds with regard to the modulation of the intracellular calcium level was evaluated using cells recombinantly expressing human TRPM8 or human TRPA1. In particular, human cells recombinantly expressing either human TRPM8 or human TRPA1 were used, which cells have been contacted with a calcium-sensitive dye, wherein the cells were incubated with the compound to be tested, and receptor modulation was quantitatively detected by calcium-dependent changes in fluorescence intensity. Such a test system is disclosed, inter alia, in Behrendt H J et al., Br. J. Pharmacol. 2004, 141:737-745, which is enclosed herein by reference. Such a test system is also disclosed, inter alia, in WO 2010/026094, which is also enclosed herein by reference. However, it should be understood that any screening method and method suitable for evaluating the agonistic activity of compounds towards a channel (such as TRPM8) can be used. Suitable methods are routine and known to the skilled person.
In general terms: Calcium assays in cells follow changes in intracellular calcium, usually with a dye or a luminescent sensor.

For test [2], the target named is T2, human TRPA1 (Homo sapiens, UniProt O75762).
T2 construct: expressed in transfected cells; host or cells: HEK293 (human cells)
T2 sequence (O75762 whole entry): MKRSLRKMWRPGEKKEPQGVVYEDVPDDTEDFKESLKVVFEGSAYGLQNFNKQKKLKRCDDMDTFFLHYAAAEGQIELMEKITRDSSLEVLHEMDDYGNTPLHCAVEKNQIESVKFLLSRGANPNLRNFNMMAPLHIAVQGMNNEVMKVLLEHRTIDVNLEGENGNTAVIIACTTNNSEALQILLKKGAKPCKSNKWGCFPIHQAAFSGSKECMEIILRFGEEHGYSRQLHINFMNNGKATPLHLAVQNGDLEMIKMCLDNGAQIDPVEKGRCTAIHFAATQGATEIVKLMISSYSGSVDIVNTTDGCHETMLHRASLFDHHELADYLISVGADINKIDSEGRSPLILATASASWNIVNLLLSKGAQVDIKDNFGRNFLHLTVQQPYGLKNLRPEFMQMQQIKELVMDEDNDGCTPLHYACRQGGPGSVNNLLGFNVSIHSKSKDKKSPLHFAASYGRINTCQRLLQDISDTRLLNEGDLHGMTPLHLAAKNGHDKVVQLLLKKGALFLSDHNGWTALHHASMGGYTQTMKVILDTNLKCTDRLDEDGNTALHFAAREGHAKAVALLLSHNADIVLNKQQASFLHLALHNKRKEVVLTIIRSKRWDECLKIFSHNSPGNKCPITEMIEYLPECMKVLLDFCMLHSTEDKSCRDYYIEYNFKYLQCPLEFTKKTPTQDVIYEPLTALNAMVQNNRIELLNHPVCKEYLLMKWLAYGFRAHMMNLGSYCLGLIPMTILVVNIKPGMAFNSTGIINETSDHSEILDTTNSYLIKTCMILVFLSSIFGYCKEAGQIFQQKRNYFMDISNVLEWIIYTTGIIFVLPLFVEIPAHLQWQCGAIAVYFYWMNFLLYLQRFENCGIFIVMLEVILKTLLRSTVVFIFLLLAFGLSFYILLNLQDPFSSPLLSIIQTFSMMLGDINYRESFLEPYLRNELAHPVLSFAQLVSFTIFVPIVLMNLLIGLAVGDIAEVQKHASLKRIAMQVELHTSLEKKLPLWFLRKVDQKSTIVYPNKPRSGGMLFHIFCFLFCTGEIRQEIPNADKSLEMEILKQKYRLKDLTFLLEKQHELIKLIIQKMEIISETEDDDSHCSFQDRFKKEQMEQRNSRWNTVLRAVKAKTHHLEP
Nature of the test: functional cell based calcium assay, cells recombinantly expressing human TRPA1. The note with it: activator (agonist) of TRPA1; intracellular calcium, calcium-sensitive dye fluorescence.
Source text: as §1, §2, §3

SMILES strings stand for the structures. Several values for one entry are separate records, joined by “and”; a condition that tells them apart may be missing. Equal values may be shown once.

T1 sequence (Q7Z2W7 whole entry): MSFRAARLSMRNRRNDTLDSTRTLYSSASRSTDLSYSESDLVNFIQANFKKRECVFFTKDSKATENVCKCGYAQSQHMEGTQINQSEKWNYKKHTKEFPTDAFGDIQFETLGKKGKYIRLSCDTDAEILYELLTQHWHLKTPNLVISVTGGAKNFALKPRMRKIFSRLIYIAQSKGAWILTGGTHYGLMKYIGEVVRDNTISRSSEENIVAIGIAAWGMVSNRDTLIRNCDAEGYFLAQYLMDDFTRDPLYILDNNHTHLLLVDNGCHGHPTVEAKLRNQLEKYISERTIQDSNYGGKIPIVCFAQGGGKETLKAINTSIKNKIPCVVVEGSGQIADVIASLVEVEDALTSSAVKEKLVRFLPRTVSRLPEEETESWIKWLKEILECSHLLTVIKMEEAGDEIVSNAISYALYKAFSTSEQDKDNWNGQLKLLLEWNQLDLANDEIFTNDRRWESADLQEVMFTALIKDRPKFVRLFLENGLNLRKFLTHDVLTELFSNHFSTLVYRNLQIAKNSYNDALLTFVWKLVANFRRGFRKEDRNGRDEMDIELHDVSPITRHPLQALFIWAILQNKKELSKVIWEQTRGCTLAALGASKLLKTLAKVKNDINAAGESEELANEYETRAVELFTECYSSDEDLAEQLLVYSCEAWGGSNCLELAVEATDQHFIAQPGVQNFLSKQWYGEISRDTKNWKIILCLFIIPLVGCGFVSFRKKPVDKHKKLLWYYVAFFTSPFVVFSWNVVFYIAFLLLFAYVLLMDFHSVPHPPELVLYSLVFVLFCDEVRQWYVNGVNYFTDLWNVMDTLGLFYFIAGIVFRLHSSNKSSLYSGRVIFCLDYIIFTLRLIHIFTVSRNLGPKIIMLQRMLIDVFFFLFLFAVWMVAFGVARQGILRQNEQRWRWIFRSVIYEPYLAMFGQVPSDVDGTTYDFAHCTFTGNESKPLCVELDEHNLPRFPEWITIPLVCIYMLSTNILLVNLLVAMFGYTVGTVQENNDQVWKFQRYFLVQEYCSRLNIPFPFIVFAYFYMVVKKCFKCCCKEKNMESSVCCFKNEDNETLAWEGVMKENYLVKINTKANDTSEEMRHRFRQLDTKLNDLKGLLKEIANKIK

For `Cc1ccc(C(=O)NCC2(c3ccccc3)CCOCC2)cc1` [Compound VI.3, 4-methyl-N-[(4-phenyloxan-4-yl)methyl]benzamide], the EC50 is ~8.15 µM and 8.15 µM in test [1]; ~108 µM and 108 µM in test [2]. Moreover, the “EC50 as activator of TRPM8 times lower than EC50 as activator of TRPA1” value in test [1] was “about 13.2 times”.

Regarding `COc1ccc2c(=O)c(-c3ccccc3)c(C)oc2c1` [Compound I.3, 7-methoxy-2-methyl-3-phenyl-4H-chromen-4-one], the EC50 in test [1] was ~2.01 µM and 2.01 µM; in test [2], ~72.4 µM and 72.4 µM. Also, the “EC50 as activator of TRPM8 times lower than EC50 as activator of TRPA1” value in test [1] is listed as “about 36 times”.

With `CCCc1cc(=O)[nH]c(SCC(=O)Nc2cc(Cl)ccc2Cl)n1` [Compound IV.3, N-(2,5-dichlorophenyl)-2-[(6-oxo-4-propyl-1,6-dihydropyrimidin-2-yl)sulfanyl]acetamide], in test [1], the concentration for a half-maximal effect (EC50) is ~4.12 µM and 4.12 µM; the “EC50 as activator of TRPM8 times lower than EC50 as activator of TRPA1” value was “about 28.6 times”. For the same compound, in test [2], the EC50 was ~118 µM and 118 µM.

`CC(C)C(CCNCCCN(C)C)c1ccc(Cl)cc1` (stereo not drawn) [Compound VII.3, [3-(4-chlorophenyl)-4-methylpentyl][3-(dimethylamino)propyl]amine]: the 50% effective concentration (EC50) is ~10.9 µM and 10.9 µM in test [1]; ~56.6 µM and 56.6 µM in test [2]. For the same compound, the “EC50 as activator of TRPM8 times lower than EC50 as activator of TRPA1” value in test [1] is “about 5.2 times”.

As to `Cc1ccc(-c2cc(C(=O)N/N=C/c3ccncc3)[nH]n2)s1` [Compound III.3, 3-(5-methylthiophen-2-yl)-N′-[(1E)-pyridin-4-ylmethylidene]-1H-pyrazole-5-carbohydrazide], in test [1], the EC50 was ~5.27 µM and 5.27 µM; the “EC50 as activator of TRPM8 times lower than EC50 as activator of TRPA1” value is listed as “about 21.5 times”. For the same compound, in test [2], the EC50 was ~113 µM and 113 µM.

As for `Cc1nc2ccccc2n1CCC(=O)N1CCN(Cc2ccc3c(c2)OCO3)CC1` [Compound V.3, 1-[4-(2H-1,3-benzodioxol-5-ylmethyl)piperazin-1-yl]-3-(2-methyl-1H-1,3-benzodiazol-1-yl)propan-1-one], the concentration giving a half-maximal response (EC50) in test [1] was ~7.53 µM and 7.53 µM; in test [2] it was ~138 µM and 138 µM. Moreover, the “EC50 as activator of TRPM8 times lower than EC50 as activator of TRPA1” value in test [1] is recorded as “about 18.4 times”.

With `COc1ccc(OC)c(NC=C2C(=O)CC(C)(C)CC2=O)c1` [Compound II.3, 2-{[(2,5-dimethoxyphenyl)amino]methylidene}-5,5-dimethylcyclohexane-1,3-dione], in test [1], the EC50 was ~8.01 µM and 8.01 µM; the “EC50 as activator of TRPM8 times lower than EC50 as activator of TRPA1” value is “about 15.4 times”. The EC50 in test [2] is ~123 µM and 123 µM.

What is called EC50 is the concentration that produces a half-maximal response.

Values taken from patent publication US9585865B2, “Small molecule modulators of the cold and menthol receptor TRPM8” (B.R.A.I.N. Biotechnology Research and Information Network AG, priority 2011, dated 2017).
